Reference: patent US11970440B1, “8-(3-chlorobenzylideneamino)naphthalene-1,3-disulfonic acid as an antioxidant compound” (KING FAISAL UNIVERSITY, priority 2023, dated 2024)

Assay: DPPH (2,2-diphenyl-1-picrylhydrazyl) radical scavenging antioxidant test in vitro
Type: biochemical
Conditions: 517 nm; for Inhibition (radical scavenging inhibition): 0.2 mL DPPH (0.75 mM), compound 3 μM in ethanol, 30 min incubation in the dark
Procedure: The antioxidant properties of the 8-(3-chlorobenzylideneamino)naphthalene-1,3-disulfonic acid were studied by adding 0.2 mL DPPH (0.75 mM)) to compound 8-(3-chlorobenzylideneamino)naphthalene-1,3-disulfonic acid (III) (3 μM) in ethanol. After 30 min of incubation in the dark, the absorbance was read against a blank at 517 nm. Ascorbic acid (vitamin C) was used as standard antioxidants (positive control). A blank sample was prepared by 0.2 ml of DPPH in 3 ml ethanol. A negative control sample was run using ethanol instead of the sample. The radical scavenging inhibition was calculated using the following equation: […]
The antioxidant activity for the synthesized compound is listed in Table 1, using Vitamin C as a reference.

SMILES | Inhibition (radical scavenging inhibition) [%] | antioxidant potential in DPPH test, in words (DPPH in vitro test, vitamin C as positive control)
O=S(=O)(O)c1cc(S(=O)(=O)O)c2c(/N=C/c3cccc(Cl)c3)cccc2c1 [Product III, 8-(3-chlorobenzylideneamino)naphthalene-1,3-disulfonic acid] | 50 | high potential as an antioxidant compared to vitamin C
O=C1O[C@H]([C@@H](O)CO)C(O)=C1O [vit c, Ascorbic acid, reference compound] | 74 | –
